Here are results for two compounds from publication PMC8533333, “Melatonin Analogues Potently Inhibit MAO-B and Protect PC12 Cells against Oxidative Stress” (Antioxidants, 2021).

Bounds are passed on as bounds.

Assay [1] addresses T1, Human recombinant MAO-A (hMAO-A) (Homo sapiens, UniProt P21397).
T1 construct: purchased Sigma Aldrich; host or cells: insect cells
T1 sequence (P21397 1-527): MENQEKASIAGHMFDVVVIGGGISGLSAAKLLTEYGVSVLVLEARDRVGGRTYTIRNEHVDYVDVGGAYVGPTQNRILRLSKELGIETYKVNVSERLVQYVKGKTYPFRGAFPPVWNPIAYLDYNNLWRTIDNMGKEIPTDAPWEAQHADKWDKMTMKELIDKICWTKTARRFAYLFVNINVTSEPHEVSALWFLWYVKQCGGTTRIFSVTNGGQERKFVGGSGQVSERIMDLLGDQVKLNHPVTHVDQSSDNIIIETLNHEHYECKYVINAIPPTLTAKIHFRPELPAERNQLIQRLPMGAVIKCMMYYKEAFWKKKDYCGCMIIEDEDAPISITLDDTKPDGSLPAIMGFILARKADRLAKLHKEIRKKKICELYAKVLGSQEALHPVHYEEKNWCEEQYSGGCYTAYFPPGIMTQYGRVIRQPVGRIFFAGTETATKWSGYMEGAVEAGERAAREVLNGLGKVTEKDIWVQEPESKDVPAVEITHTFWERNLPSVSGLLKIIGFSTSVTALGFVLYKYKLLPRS
Kind of assay: MAO-A enzyme assay (Amplex Red), selectivity. Format: biochemical. The method, then: Biological evaluation of the synthesized melatonin derivatives over both MAO-A and MAO-B was performed as reported previously. A detailed description of the protocol is in the Supplementary Materials.
6. Materials and methods of monoamine oxidase (MAO) enzyme assay
The inhibitory activity of MAO-A, B enzyme of the compounds was evaluated based on previously described method. The MAO activity was measured in relative fluorescence units (RFU) evoked by peroxidase-catalyzed oxidation of Amplex Red® to resorufin, in which H2O2 generated by MAO reaction was used as the […]. Human recombinant MAO-A (hMAO-A) and MAO-B (hMAO-B) enzyme expressed in insect cells were obtained from Sigma Aldrich. The 2 μL of test compound in DMSO (final concentration: 1 nM – 10 μM) was treated with 98 μL of hMAO enzyme solution in 50 mM sodium phosphate buffer (pH 7.4, final protein amounts: ~1.25 μg protein/well for MAO-A and ~2.5 μg protein/well for MAO -B) on 96-well black plate and incubated for 15 min at 37 °C. Then 100 μL of reaction working solution which is mixed solution of 400 μM Amplex Red® (Cayman, final concentration: 200 μM), 2 U/mL horseradish peroxidase ( Sigma-Aldrich, final concentration: 1 U/mL) and 2 mM substrate ( p-tyramine for MAO -A, benzylamine for MAO -B, Sigma-Aldrich, final concentration: 1 mM) in 50 mM sodium phosphate buffer (pH 7.4) were added and incubated for 20 min at 37 °C in the dark. The fluorescent intensity was quantified using a microplate reader (SpectraMax®i3, Molecular Device) with an excitation at 545 nm and an emission at 590 nm. The 50% inhibitory concentrations (IC50) of compounds were determined as the mean ± S.E.M. in triplicate from the dose-response inhibition curves using SigmaPlot® 13.0.
monoamine oxidase inhibitors. Bioorganic & medicinal chemistry 2015, 23, 6486-6496,

The subject of assay [2] is LPO in rat brain homogenates. Kind of assay: Lipid peroxidation (LPO) induced by Fe2+ and L-ascorbic acid in rat forebrain homogenates. The note with it: 100 μM; Fe2+ 10 µM and L-ascorbic acid 100 µM. The class given is biochemical. On the procedure:
The effects of the investigated compounds on the LPO levels in rat forebrain homogenates were evaluated as previously described. Sprague–Dawley (SD) rats were obtained from Daehan Biolink (Chungbuk, Korea) and maintained in the animal facility with controlled temperature (22 ± 2 °C) and relative humidity (40–60%). All the experimental steps and protocols of the animal experiments were approved by the Institutional Animal Ethical Committee of Dongguk University (Approval Number: IACUC-2019-001-2). To initiate LPO reaction, 3–4 mg protein/mL diluent of SD rat forebrain homogenates in 20 mM Tris-HCl buffer (pH 7.4) and several concentrations of the tested compounds dissolved in DMSO were added to a reaction mixture with 10 µM Fe^2+ and 100 µM L-ascorbic acid and incubated for 60 min at 37 °C. After halting the reaction by adding 28% w/v trichloroacetic acid and 1% w/v TBA in succession, the solution was heated for 15 min at 100 °C, which was followed by centrifugation at 3000 rpm for 10 min at 4 °C to separate the precipitates. […] The percentage of inhibition was calculated by the following formula:Inhibition (%) = 100 × (1 − Abssample/Abscontrol) (Abscontrol, the absorbance of control without tested compounds; Abssample, the absorbance of sample with tested compounds). […]

A further assay concerns HO-1. Nature of the assay: HO-1 protein expression in PC12 cells (Western blotting). Format: cell-based, rat. The note with it: for HO-1 protein expression over time: 10 μM, 1 to 12 h, significant at 6–12 h; for increase in HO-1 expression: 30 μM, 12 h. On the procedure:
(§1) PC12 cells were seeded on 35 mm dishes at a density of 2 × 10^6 cells/dish and kept at 37 °C in humidified incubator for at least 24 h. Cells were treated with a series of concentrations of the tested compounds for 12 h or with the tested compounds (10 μM) for the indicated time points. Control cells were treated with serum-free media containing 0.3% DMSO instead. Total cell lysates were prepared according to the methods described previously, and stored at −20 °C until used. To evaluate the effects of the tested compounds on the nuclear translocation of Nrf2, nuclear fraction was separated from cytosolic fraction using NE-PER Nuclear and Cytoplasmic Extraction Reagents (Rockford, IL, USA), following the manufacturer’s directions. The protein concentrations were assessed using a BioRad DC protein assay kit (BioRad, Hercules, CA, USA). Equal amounts of proteins (20 µg) were resolved on 12% or 8% gels via sodium dodecyl sulfate-polyacrylamide gel electrophoresis and electrophoretically transferred onto nitrocellulose membrane (Whatman, Clifton, NJ, USA). Subsequently, immunoblotting was performed using anti-HO-1 or anti-Nrf2 antibodies, respectively, according to the procedures reported previously. Beta-actin, a highly conserved cytoskeletal protein, was used as a loading control of cell lysates to normalize the level of HO-1, while nuclear protein lamin B was used as a nuclear loading control to normalize the level of Nrf2 in the nuclear fraction. Finally, the immunoreactive bands corresponding to HO-1 or Nrf2 proteins were visualized using Clarity^TM Western ECL substrate (Bio-Rad, Hercules, CA, USA) using the BioRad ChemiDoc XRS imaging system (Bio-Rad, Hercules, CA, USA).

The subject of a further assay is Nrf2. Kind of assay: Nuclear translocation of Nrf2 in PC12 cells (Western blotting). The note with it: for time of peak Nrf2 protein expression: 10 μM; for nuclear translocation of Nrf2: PC12 nuclear fraction, Western blotting. Format: cell-based, rat. On the procedure: as §1
Nrf2 is a transcription factor involved in the expression of antioxidant defense enzymes in response to oxidative stress. Upon nuclear translocation, Nrf2 binds to antioxidant response elements (AREs), leading to the transcription of ARE genes such as HO-1 [111]. […] Nrf2 protein expression peaked after 6 h of treatment with each compound at 10 μM (Figure 15A,B). […] The nuclear translocation of Nrf2 was increased by 3n and 3r in concentration-dependent manners (Figure 16C,D).
(In general: Immunoblotting shows a protein as a band on a membrane.)

Consider `O=C(Nc1ccc2[nH]ccc2c1)c1cccc(Cl)c1` [3n, 3-Chloro-N-(1H-indol-5-yl)benzamide], for which the IC50 in assay [1] was above 100 µM. For the same compound, the “inhibition of lipid peroxide formation (LPO)” value in assay [2] is 23.5 ± 1.7%. In the assay with HO-1, the “HO-1 protein expression over time” value is on record as “time-dependent increases” and the “increase in HO-1 expression” value is 1.6 fold. In the assay on Nrf2, the “time of peak Nrf2 protein expression” value is recorded as 6 h and the “nuclear translocation of Nrf2” value is “increased”.
In the case of `O=C(Nc1ccc2[nH]ccc2c1)c1cccc(Br)c1` [3r, 3-Bromo-N-(1H-indol-5-yl)benzamide], the IC50 in assay [1] was above 100 µM. Also, in assay [2], the “inhibition of lipid peroxide formation (LPO)” value is 44.4 ± 2.2%. In the assay with HO-1, the “HO-1 protein expression over time” value is given as “time-dependent increases” and the “increase in HO-1 expression” value is 1.7 fold. In addition, in the assay with Nrf2, the “time of peak Nrf2 protein expression” value was found to be 6 h and the “nuclear translocation of Nrf2” value is recorded as “increased”.

Broadly, the IC50 is the point on the concentration scale where inhibition reaches its midpoint.
